For test [1], the system named is Dengue virus type 2 strain New Guinea C (NG-C). Put plainly: Dengue viral assay (cytopathic effect, Huh-7.5 cells). In kind it is cell-based. The following applies: Huh7.5, Dengue virus type 2 (NG-C strain), read-out: Dengue NGC EC50. Here is the method: (§1) The Dengue virus type 2 strain New Guinea C (NG-C) and the Dengue virus type 4 strain H241 were purchased from ATCC (Manassas, Va.; item numbers VR-1584 and VR-1490, respectively). The Zika virus strain MR766 was purchased from ATCC (item #VR-1838) and the Zika virus strain IbH 30656 was purchased from BEI Resources (Manassas, Va.; item number NR-500066). 24 h prior to dosing, Huh-7.5 cells were plated in 96 well plates at a density of 1.5×10^5/mL in DMEM medium supplemented with 10% fetal bovine serum, 1% HEPES buffer, 1% Penicillin/Streptomycin and 1% non-essential amino acids (all Mediatech, Manassas, Va.). At the day of infection, serially diluted compounds were added to cells and incubated for 24 h. After the end of the 24 h pre-incubation period, cells were infected with either Dengue virus type 2 NG-C, Dengue virus type 4 H241, Zika virus strain MR766 or Zika virus strain IbH 30656. The virus inoculum was selected to cause 80-90% cytopathic effect in four (Zika) to five (Dengue) days. Infected cells were incubated for four to five days at 37° C., 5% CO2. To develop the assay, 100 μL media was replaced with 100 μl CellTiter-Glo® reagent (Promega, Madison, Wis.) and incubated for 10 mins at R.T. Luminescence was measured on a Victor ×3 multi-label plate reader. Potential compound cytotoxicity was determined using uninfected parallel cultures.
For orientation: Cytopathic effects are the visible damage that an infection or toxin causes in cultured cells.

In a further test the test system is Human rhinovirus 1B. Description: Picornavirus / enterovirus assay, HRV 1B (HeLa-OHIO cells). Type of test: cell-based. Conditions: Rhinovirus A; HeLa-OHIO cells, 33° C.; read-out: HRV 1B EC50.
A further test has as its system Human rhinovirus 16. Description: Enterovirus assay, HRV 16 (HeLa-OHIO cells). In kind it is cell-based. The following applies: Rhinovirus A. The procedure:
(§2) HeLa OHIO cells were purchased from Sigma Aldrich (St Louis, Mo.) and cultured in MEM with Glutamax (Gibco cat. #41090) supplemented with 10% FBS (Mediatech cat. #35-011-CV) and 1% penicillin/streptomycin (Mediatech cat. #30-002-CI), at 37° C. with 5% CO2. RD cells were purchased from ATCC (Manassas, Va.) and cultured in DMEM, supplemented with 10% FBS (Mediatech cat. #35-011-CV) and 1% penicillin/streptomycin (Mediatech cat. #30-002-CI), at 37° C. with 5% CO2. For […]68 and CVB3, HeLa-OHIO cells were plated at a density of 1.5×10^5 cells per mL (1.5×10^4 cells per well) in assay media (MEM without phenol red or L-glutamine (Gibco cat. #51200) supplemented with 1% FBS, 1% penicillin/streptomycin (Mediatech cat. #30-002-CI) and 1% Glutamax (Gibco cat. #35050)) in clear-bottom 96 well plates. For EV71, RD cells were plated at a density of 5×10^4 cells per mL (5000 cells per well) in assay media (DMEM supplemented with 2% FBS and 1% penicillin/streptomycin). After 24 h, media was removed and replaced with serially diluted compounds in assay media. […] After 2-6 days, cell viability was measured using CellTiter Glo Luminescent Cell Viability Assay (Promega cat. #G7572). […] Plates were incubated at R.T. for 5 mins, then luminescence was measured using a Perkin Elmer multilabel counter Victor3V. EC50 values were determined using XLFit.

For another test, the system named is EV71. Put plainly: Enterovirus assay, EV71 (RD cells). Type of test: cell-based. Conditions: Enterovirus A, 37° C. Here is the method:
HeLa OHIO cells were purchased from Sigma Aldrich (St Louis, Mo.) and cultured in MEM with Glutamax (Gibco cat. #41090) supplemented with 10% FBS (Mediatech cat. #35-011-CV) and 1% penicillin/streptomycin (Mediatech cat. #30-002-CI), at 37° C. with 5% CO2. RD cells were purchased from ATCC (Manassas, Va.) and cultured in DMEM, supplemented with 10% FBS (Mediatech cat. #35-011-CV) and 1% penicillin/streptomycin (Mediatech cat. #30-002-CI), at 37° C. with 5% CO2. For […]68 and CVB3, HeLa-OHIO cells were plated at a density of 1.5×10^5 cells per mL (1.5×10^4 cells per well) in assay media (MEM without phenol red or L-glutamine (Gibco cat. #51200) supplemented with 1% FBS, 1% penicillin/streptomycin (Mediatech cat. #30-002-CI) and 1% Glutamax (Gibco cat. #35050)) in clear-bottom 96 well plates. For EV71, RD cells were plated at a density of 5×10^4 cells per mL (5000 cells per well) in assay media (DMEM supplemented with 2% FBS and 1% penicillin/streptomycin). After 24 h, media was removed and replaced with serially diluted compounds in assay media. For EC50 measurements, cells were infected in 100 μL assay media with a virus inoculum sufficient to obtain to cause 80-90% cytopathic effect. After 2-6 days, cell viability was measured using CellTiter Glo Luminescent Cell Viability Assay (Promega cat. #G7572). Cells infected with EV-71, EV-68 and CVB3 were cultured at 37° C., while cells infected with hV1b, hV-16, hV-75 were cultured at 33° C. 100 μL media was removed from each well and 100 μL CellTiter Glo reagent was added. Plates were incubated at R.T. for 5 mins, then luminescence was measured using a Perkin Elmer multilabel counter Victor3V. EC50 values were determined using XLFit.

For a further test, the system named is Zika virus. Description: Zika viral assay (cytopathic effect, Huh-7.5 cells). Type of test: cell-based. Conditions: Huh7.5, read-out: Zika EC50. The procedure:
as §1

Another test has as its system Human rhinovirus 75. Put plainly: Enterovirus assay, HRV 75 (HeLa-OHIO cells). Type of test: cell-based. Conditions: Rhinovirus A. Here is the method: as §2
Another test relates to Human rhinovirus 14. Put plainly: Enterovirus assay, HRV 14 (HeLa-OHIO cells). In kind it is cell-based. Conditions: Rhinovirus B.
A further test deals with CVB3. Put plainly: Enterovirus assay, CVB3 (HeLa-OHIO cells). Type of test: cell-based, Coxsackie virus 3B. Conditions: Enterovirus B, 37° C. Here is the method: as §2
In test [2] the test system is Huh-7 cells containing the self-replicating, subgenomic HCV replicon. Put plainly: HCV replicon assay. In kind it is cell-based. The following applies: Hepatitis C virus; Huh-7 replicon cells, 72 h, luciferase. For orientation: A replicon is a self-replicating genome or part of one, used to study replication in cells.
For a further test, the target named is NS5B-BK (Delta-21) (Hepatitis C virus genotype 1b, UniProt P26663). Description: biochemical. Further details: species or system HCV.
NS5B-BK (Delta-21), sequence (P26663 2420-2989 limits assumed): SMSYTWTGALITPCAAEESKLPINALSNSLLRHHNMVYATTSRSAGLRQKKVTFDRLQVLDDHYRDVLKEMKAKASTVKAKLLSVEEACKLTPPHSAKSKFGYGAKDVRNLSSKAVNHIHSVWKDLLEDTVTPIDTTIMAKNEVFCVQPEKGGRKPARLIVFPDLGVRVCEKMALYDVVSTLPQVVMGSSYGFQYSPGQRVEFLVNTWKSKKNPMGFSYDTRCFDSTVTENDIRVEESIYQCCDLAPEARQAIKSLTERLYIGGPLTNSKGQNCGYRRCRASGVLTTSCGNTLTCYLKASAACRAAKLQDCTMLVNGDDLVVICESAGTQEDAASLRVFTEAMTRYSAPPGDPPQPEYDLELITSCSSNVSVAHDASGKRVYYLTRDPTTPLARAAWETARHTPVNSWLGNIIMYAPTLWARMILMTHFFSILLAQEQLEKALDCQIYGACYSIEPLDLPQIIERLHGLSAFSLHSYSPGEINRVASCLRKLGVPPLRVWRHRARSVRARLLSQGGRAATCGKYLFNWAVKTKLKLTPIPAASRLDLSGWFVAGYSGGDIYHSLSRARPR
Another test has as its target Dengue viral polymerase (Dengue virus type 2, UniProt P14340). Description: biochemical. Conditions: triphosphates; read-out: Viral Polymerase Inhibition IC50 Dengue.
Test [3] deals with human rhinovirus 16 polymerase (HRV16pol) (Human rhinovirus 16, UniProt Q82122). Put plainly: Picornavirus polymerase inhibition assay. Type of test: biochemical. The following applies: triphosphates, read-out: Viral Polymerase Inhibition IC50 Picornavirus. The procedure:
The enzyme activity of human rhinovirus 16 polymerase (HRV16pol) was measured as an incorporation of tritiated NMP into acid-insoluble RNA products. hV16pol assay reactions contained […] recombinant enzyme, 50 nM heteropolymeric RNA, about 0.5 μCi tritiated NTP, 0.1 mM of competing cold NTP, 40 mM Tris-HCl (pH 7.0), […] dithiothreitol and 0.5 mM MgCl2. Standard reactions were incubated for 2.5 h at 30° C., in the presence of increasing concentration of inhibitor. At the end of the reaction, RNA was precipitated with 10% TCA and acid-insoluble RNA products were filtered on a size exclusion 96-well plate. After washing of the plate, scintillation liquid was added and radiolabeled RNA products were detected using standard procedures with a Trilux Microbeta scintillation counter. The compound concentration at which the enzyme-catalyzed rate was reduced by 50% (IC50) was calculated by fitting the data to a non-linear regression (sigmoidal).

What is called EC50 is the concentration at which the effect is half-maximal. What is called IC50 is the concentration at which inhibition is half-maximal.

human rhinovirus 16 polymerase (HRV16pol), sequence (Q82122 1694-2153 limits assumed): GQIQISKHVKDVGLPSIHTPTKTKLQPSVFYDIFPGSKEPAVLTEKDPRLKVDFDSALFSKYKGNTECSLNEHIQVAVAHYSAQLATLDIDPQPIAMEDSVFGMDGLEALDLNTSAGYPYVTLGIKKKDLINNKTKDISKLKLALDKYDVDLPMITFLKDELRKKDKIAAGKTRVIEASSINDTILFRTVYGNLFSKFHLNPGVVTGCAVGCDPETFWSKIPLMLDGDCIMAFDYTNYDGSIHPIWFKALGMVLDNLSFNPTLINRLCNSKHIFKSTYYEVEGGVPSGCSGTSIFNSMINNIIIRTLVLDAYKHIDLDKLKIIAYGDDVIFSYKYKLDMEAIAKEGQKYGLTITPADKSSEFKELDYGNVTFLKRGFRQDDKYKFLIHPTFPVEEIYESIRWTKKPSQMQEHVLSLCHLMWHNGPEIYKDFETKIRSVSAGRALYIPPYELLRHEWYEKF

Take `C#C[C@]1(O)[C@H](n2cnc3c(N)ncnc32)O[C@](F)(CO)[C@H]1O` [Compound 1, (2S,3S,4R,5R)-5-(6-amino-9H-purin-9-yl)-4-ethynyl-2-fluoro-2-(hydroxymethyl)tetrahydrofuran-3,4-diol]: the EC50 (in test [1]; in the test on Human rhinovirus 1B; in the test with Human rhinovirus 16; in the test with EV71; in the test on Zika virus; with Human rhinovirus 75) was < 3 µM throughout. Also, the concentration giving a half-maximal response (EC50) (with Human rhinovirus 14; in the test with CVB3; in test [2]) was < 3 µM in each case.

Take `C#C[C@]1(O)[C@H](n2cc(F)c3c(N)ncnc32)O[C@](F)(CO)[C@H]1O` [Compound 7, (2S,3S,4R,5R)-5-(4-amino-5-fluoro-7H-pyrrolo[2,3-d]pyrimidin-7-yl)-4-ethynyl-2-fluoro-2-(hydroxymethyl)tetrahydrofuran-3,4-diol]: the EC50 (in test [1]; with Human rhinovirus 1B; with EV71) was < 3 µM in each case.

As for `C[C@]1(O)[C@H](n2cnc3c(N)ncnc32)O[C@](F)(CO)[C@H]1O` [Compound 13, (2S,3S,4R,5R)-5-(6-amino-9H-purin-9-yl)-2-fluoro-2-(hydroxymethyl)-4-methyltetrahydrofuran-3,4-diol], the EC50 is > 100 µM in test [1], 3 to 30 µM with Human rhinovirus 1B and 3 to 30 µM in test [2].

Regarding `C[C@]1(F)[C@H](n2cnc3c(N)nc(N)nc32)O[C@](F)(CO)[C@H]1O` [Compound 15, (2S,3S,4R,5R)-5-(2,6-diamino-9H-purin-9-yl)-2,4-difluoro-2-(hydroxymethyl)-4-methyltetrahydrofuran-3-ol], the EC50 in test [1] is > 100 µM; in the test with Human rhinovirus 1B it was 30 to 100 µM; in test [2], > 100 µM.

For the molecule `C#C[C@]1(O)[C@H](n2cnc3c(N)ncnc32)O[C@](F)(COP(=O)(O)OP(=O)(O)OP(=O)(O)O)[C@H]1O` [Compound 23], the IC50 (against NS5B-BK (Delta-21); at Dengue viral polymerase; in test [3]) was < 3 µM throughout.

Turning to `C=C=C[C@@]1(O)[C@H](O)[C@@H](COP(=O)(O)OP(=O)(O)OP(=O)(O)O)O[C@H]1n1cnc2c(N)ncnc21` [Compound 25], the half-inhibitory concentration (IC50) against NS5B-BK (Delta-21) was < 3 µM; on Dengue viral polymerase, 3 to 30 µM; in test [3], 3 to 30 µM.

In the case of `C#C[C@@]1(O)[C@H](O)[C@@H](CO)O[C@H]1c1ccc2c(N)ncnn12` [Compound 26, (2S,3R,4R,5R)-2-(4-aminopyrrolo[2,1-f][1,2,4]triazin-7-yl)-3-ethynyl-5-(hydroxymethyl)tetrahydrofuran-3,4-diol], the concentration giving a half-maximal response (EC50) (in test [1]; with Human rhinovirus 1B; with EV71) was < 3 µM each time.

Consider `C#C[C@@]1(O)[C@H](O)[C@@H](COP(=O)(O)OP(=O)(O)OP(=O)(O)O)O[C@H]1n1cnc2c(=O)[nH]cnc21` [Compound 35], for which the concentration for half-maximal inhibition (IC50) at NS5B-BK (Delta-21) is < 3 µM; at Dengue viral polymerase, < 3 µM; in test [3] it was > 100 µM.

Consider `C#C[C@]1(OC(=O)C(C)C)[C@H](n2cnc3c(N)ncnc32)O[C@](F)(COC(=O)C(C)C)[C@H]1OC(=O)C(C)C` [Compound 43, (2S,3S,4R,5R)-5-(6-amino-9H-purin-9-yl)-4-ethynyl-2-fluoro-2-((isobutyryloxy)methyl)tetrahydrofuran-3,4-diylbis(2-methylpropanoate)], for which the half-maximal effective concentration (EC50) (in [1]; with Human rhinovirus 1B; in the test on EV71) was < 3 µM in each case.

As to `C#C[C@]1(O)[C@H](n2cc(C#N)c3c(N)ncnc32)O[C@](F)(COP(=O)(O)OP(=O)(O)OP(=O)(O)O)[C@H]1O` [Compound 45], the IC50 (on NS5B-BK (Delta-21); on Dengue viral polymerase; in test [3]) was < 3 µM in each case.

Turning to `C#C[C@]1(O)[C@H](n2cc(C(N)=O)c3c(N)ncnc32)O[C@](F)(COP(=O)(O)OP(=O)(O)OP(=O)(O)O)[C@H]1O` [Compound 50], the IC50 against NS5B-BK (Delta-21) is 3 to 30 µM; on Dengue viral polymerase, < 3 µM; in [3], < 3 µM.

Take `C#C[C@]1(O)[C@H](n2cc(F)c3c(N)ncnc32)O[C@](F)(COP(=O)(O)OP(=O)(O)OP(=O)(O)O)[C@H]1O` [Compound 51]: the IC50 (against NS5B-BK (Delta-21); on Dengue viral polymerase; in test [3]) was < 3 µM in each case.

Regarding `C#C[C@@]1(O)[C@H](O)[C@@H](COP(=O)(O)OP(=O)(O)OP(=O)(O)O)O[C@H]1c1ccc2c(N)ncnn12` [Compound 52], the IC50 (on NS5B-BK (Delta-21); on Dengue viral polymerase; in [3]) was < 3 µM each time.

Regarding `C#C[C@@]1(O)[C@H](O)[C@@H](COP(=O)(O)OP(=O)(O)OP(=O)(O)O)O[C@H]1c1cnc2c(N)ncnn12` [Compound 53], the IC50 was < 3 µM against NS5B-BK (Delta-21), 3 to 30 µM on Dengue viral polymerase and < 3 µM in test [3].

On to `C#C[C@@]1(F)[C@H](O)[C@@H](COP(=O)(O)OP(=O)(O)OP(=O)(O)O)O[C@H]1c1cnc2c(N)ncnn12` [Compound 54], for which the figures for the IC50 (against NS5B-BK (Delta-21); at Dengue viral polymerase; in test [3]) were < 3 µM, 30 to 100 µM and 30 to 100 µM, respectively.

In the case of `C#C[C@]1(O)[C@H](n2cnc3c(=O)[nH]cnc32)O[C@](F)(COP(=O)(O)OP(=O)(O)OP(=O)(O)O)[C@H]1O` [Compound 56], the figures for the IC50 (against NS5B-BK (Delta-21); on Dengue viral polymerase; in [3]) were < 3 µM, 3 to 30 µM and < 3 µM, respectively.

As to `C#C[C@]1(O)[C@H](n2cnc3c(N)nc(F)nc32)O[C@](F)(COP(=O)(O)OP(=O)(O)OP(=O)(O)O)[C@H]1O` [Compound 57], the IC50 (against NS5B-BK (Delta-21); at Dengue viral polymerase; in [3]) was < 3 µM throughout.

Consider `C#C[C@@]1(O)[C@H](O)[C@@H](COP(=O)(O)OP(=O)(O)OP(=O)(O)O)O[C@H]1n1cc(F)c2c(N)ncnc21` [Compound 58], for which the IC50 (on NS5B-BK (Delta-21); on Dengue viral polymerase; in [3]) was < 3 µM in each case.

Values taken from patent US20190169221A1, “SUBSTITUTED NUCLEOSIDES, NUCLEOTIDES AND ANALOGS THEREOF” (Janssen BioPharma, Inc., priority 2016, published 2019).
